The inhibition is the share of the control response that was lost under treatment.

This note sets out measurements from patent US20230072683A1, “PYRIDO-PYRIMIDIN DERIVATIVES AND PHARMACEUTICAL COMPOSITION, FOR USE IN PREVENTING OR TREATING PI3 KINASE RELATED DISEASES, COMPRISING SAME AS ACTIVE INGREDIENT” (BORYUNG PHARMACEUTICAL CO., LTD, priority 2019, published 2023).

Test [1] deals with PI3K-δ (PI3K(p1108/p857) (h)) (Homo sapiens, UniProt O00329). Briefly: Evaluation of inhibitory activity against PI3K-δ (HTRF kinase assay). Type of test: biochemical. The settings on record: compound at 0.1 μM; read-out: EXP_VALUE(% Inhibition) PI3K-δ 0.1 μM. The method in brief: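 HTRF read-out (665/620 nm ratio ×10000) used Eu-labelled anti-GST, GST-tagged GRP1 PH domain and streptavidin-allophycocyanin after EDTA/PIP3 stop.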
In general terms: Time-resolved FRET reads energy transfer from a long-lived donor to a nearby acceptor.

Another test addresses DNA-PK(h) (Homo sapiens, UniProt P78527). Briefly: Evaluation of inhibitory activity against DNA-PK (HTRF kinase assay, GST-cMyc-p53 substrate). The class given is biochemical. The conditions noted are these: compound at 0.1 μM; read-out: EXP_VALUE(% Inhibition) DNA-PK(h) 0.1 μM. Summed up: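 p53 Ser15 phosphorylation by human DNA-PK was measured by time-resolved FRET ratio (665/620 nm ×10000) using Eu-labelled anti-phospho-Ser15 and d2 anti-GST antibodies. Substrate GST-cMyc-p53 at 50 μM; Mg/ATP-initiated, 30 min at room temperature, EDTA stop.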

PI3K-δ (PI3K(p1108/p857) (h)), sequence (O00329 whole entry, the tested form may be a part): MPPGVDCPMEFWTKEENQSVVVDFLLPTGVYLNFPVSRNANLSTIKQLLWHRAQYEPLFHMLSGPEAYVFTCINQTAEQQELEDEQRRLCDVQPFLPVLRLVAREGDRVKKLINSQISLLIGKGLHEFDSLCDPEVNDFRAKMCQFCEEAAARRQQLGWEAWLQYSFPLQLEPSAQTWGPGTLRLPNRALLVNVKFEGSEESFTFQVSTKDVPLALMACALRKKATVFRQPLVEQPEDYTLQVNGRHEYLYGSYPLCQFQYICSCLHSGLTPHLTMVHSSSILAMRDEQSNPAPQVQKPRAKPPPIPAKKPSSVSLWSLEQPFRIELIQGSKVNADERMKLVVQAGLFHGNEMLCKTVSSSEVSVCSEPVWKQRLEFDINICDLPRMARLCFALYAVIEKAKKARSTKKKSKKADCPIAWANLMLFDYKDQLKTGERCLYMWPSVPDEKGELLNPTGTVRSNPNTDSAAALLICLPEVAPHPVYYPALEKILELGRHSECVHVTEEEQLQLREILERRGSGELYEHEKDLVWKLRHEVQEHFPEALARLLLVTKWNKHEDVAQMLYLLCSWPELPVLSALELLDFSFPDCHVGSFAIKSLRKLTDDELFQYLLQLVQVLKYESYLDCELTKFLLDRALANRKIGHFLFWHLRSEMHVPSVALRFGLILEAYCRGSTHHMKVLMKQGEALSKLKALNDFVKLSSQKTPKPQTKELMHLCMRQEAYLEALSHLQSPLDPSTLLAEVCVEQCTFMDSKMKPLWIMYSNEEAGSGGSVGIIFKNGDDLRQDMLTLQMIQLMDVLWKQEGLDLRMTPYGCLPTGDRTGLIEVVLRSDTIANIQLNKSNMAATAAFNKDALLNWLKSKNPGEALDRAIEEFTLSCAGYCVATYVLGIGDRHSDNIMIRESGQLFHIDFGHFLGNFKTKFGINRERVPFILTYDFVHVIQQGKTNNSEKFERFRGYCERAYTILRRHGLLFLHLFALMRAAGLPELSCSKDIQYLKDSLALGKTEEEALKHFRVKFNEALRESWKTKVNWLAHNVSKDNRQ
PI3K-δ (PI3K(p1108/p857) (h)), sequence (P27986 whole entry partner, the tested form may be a part): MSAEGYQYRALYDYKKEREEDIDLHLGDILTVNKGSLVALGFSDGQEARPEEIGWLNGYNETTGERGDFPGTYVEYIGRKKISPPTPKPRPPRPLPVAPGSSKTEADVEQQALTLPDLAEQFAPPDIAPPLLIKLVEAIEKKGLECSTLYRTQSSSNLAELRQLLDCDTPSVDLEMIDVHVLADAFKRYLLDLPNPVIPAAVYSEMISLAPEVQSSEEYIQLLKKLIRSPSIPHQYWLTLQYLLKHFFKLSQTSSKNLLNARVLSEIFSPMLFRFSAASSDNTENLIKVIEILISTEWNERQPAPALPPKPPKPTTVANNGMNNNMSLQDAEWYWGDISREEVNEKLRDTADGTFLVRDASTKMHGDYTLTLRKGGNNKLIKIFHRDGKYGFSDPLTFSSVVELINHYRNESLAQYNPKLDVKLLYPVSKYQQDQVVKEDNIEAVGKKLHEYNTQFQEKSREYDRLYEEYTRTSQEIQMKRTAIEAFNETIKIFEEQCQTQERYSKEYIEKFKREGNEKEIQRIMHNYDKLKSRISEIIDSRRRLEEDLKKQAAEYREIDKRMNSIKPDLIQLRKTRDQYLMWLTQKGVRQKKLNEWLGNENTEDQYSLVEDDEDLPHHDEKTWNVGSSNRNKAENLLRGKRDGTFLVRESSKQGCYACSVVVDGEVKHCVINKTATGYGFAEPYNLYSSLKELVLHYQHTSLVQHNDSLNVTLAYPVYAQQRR

`CCCOC(C)(C)c1ncc(-c2cccc3c(Cl)c([C@H](C)Nc4ncnc5[nH]ccc(=O)c45)n(-c4ccccc4)c(=O)c23)cn1` [Example 406, (S)-4-((1-(4-chloro-1-oxo-2-phenyl-8-(2-(2-propoxypropan-2-yl)pyrimidin-5-yl)-1,2-dihydroisoquinolin-3-yl)ethyl)amino)pyrido[2,3-d]pyrimidin-5(8H)-one]: the inhibition at 0.1 µM in test [1] was 72%; on DNA-PK(h) it was 71%.

For `C[C@H](Nc1ncnc2[nH]ccc(=O)c12)c1c(Cl)c2cccc(-c3cnc(S(C)(=N)=O)nc3)c2c(=O)n1-c1ccccc1` (stereo partly drawn) [Example 407, 4-(((1S)-1-(4-chloro-8-(2-(S-methylsulfonimidoyl)pyrimidin-5-yl)-1-oxo-2-phenyl-1,2-dihydroisoquinolin-3-yl)ethyl)amino)pyrido[2,3-d]pyrimidin-5(8H)-one], the inhibition at 0.1 µM is 67% in test [1] and 70% on DNA-PK(h).

For `CCC[S@@](=N)(=O)c1cccc2c(Cl)c([C@H](C)Nc3ncnc4[nH]ccc(=O)c34)n(-c3ccccc3)c(=O)c12` [Example 408, 4-(((S)-1-(4-chloro-1-oxo-2-phenyl-8-((R)-propylsulfonimidoyl)-1,2-dihydroisoquinolin-3-yl)ethyl)amino)pyrido[2,3-d]pyrimidin-5(8H)-one], the inhibition at 0.1 µM in test [1] is 71%; at DNA-PK(h), 28%.

On to `CCC[S@](=N)(=O)c1cccc2c(Cl)c([C@H](C)Nc3ncnc4[nH]ccc(=O)c34)n(-c3ccccc3)c(=O)c12` [Example 409, 4-(((S)-1-(4-chloro-1-oxo-2-phenyl-8-((S)-propylsulfonimidoyl)-1,2-dihydroisoquinolin-3-yl)ethyl)amino)pyrido[2,3-d]pyrimidin-5(8H)-one], for which the inhibition at 0.1 µM in test [1] is 17%; at DNA-PK(h), 53%.

In the case of `CC(C)[S@@](=N)(=O)c1cccc2c(Cl)c([C@H](C)Nc3ncnc4[nH]ccc(=O)c34)n(-c3ccccc3)c(=O)c12` [Example 410, 4-(((S)-1-(4-chloro-1-oxo-2-phenyl-8-((R)-propan-2-ylsulfonimidoyl)-1,2-dihydroisoquinolin-3-yl)ethyl)amino)pyrido[2,3-d]pyrimidin-5(8H)-one], the inhibition at 0.1 µM in test [1] is 14%; on DNA-PK(h), 23%.

Turning to `CC(C)[S@](=N)(=O)c1cccc2c(Cl)c([C@H](C)Nc3ncnc4[nH]ccc(=O)c34)n(-c3ccccc3)c(=O)c12` [Example 411, 4-(((S)-1-(4-chloro-1-oxo-2-phenyl-8-((S)-propan-2-ylsulfonimidoyl)-1,2-dihydroisoquinolin-3-yl)ethyl)amino)pyrido[2,3-d]pyrimidin-5(8H)-one], the inhibition at 0.1 µM was found to be 4% in test [1] and 37% on DNA-PK(h).

`C[C@H](Nc1ncnc2[nH]ccc(=O)c12)c1c(Cl)c2cccc(Sc3ccccn3)c2c(=O)n1-c1ccccc1` [Example 412, (S)-4-((1-(4-chloro-1-oxo-2-phenyl-8-(pyridin-2-ylthio)-1,2-dihydroisoquinolin-3-yl)ethyl)amino)pyrido[2,3-d]pyrimidin-5(8H)-one]: the inhibition at 0.1 µM came out at 29% in test [1] and 15% on DNA-PK(h).

As to `C[C@H](Nc1ncnc2[nH]ccc(=O)c12)c1c(Cl)c2cccc([S+]([O-])c3ccccn3)c2c(=O)n1-c1ccccc1` (stereo partly drawn) [Example 413, 4-(((1S)-1-(4-chloro-1-oxo-2-phenyl-8-(pyridin-2-ylsulfinyl)-1,2-dihydroisoquinolin-3-yl)ethyl)amino)pyrido[2,3-d]pyrimidin-5(8H)-one], the inhibition at 0.1 µM in test [1] came to 16%; at DNA-PK(h) it was 30%.

As to `C[C@H](Nc1ncnc2[nH]ccc(=O)c12)c1c(Cl)c2cccc(S(=O)(=O)c3ccccn3)c2c(=O)n1-c1ccccc1` [Example 414, (S)-4-((1-(4-chloro-1-oxo-2-phenyl-8-(pyridin-2-ylsulfonyl)-1,2-dihydroisoquinolin-3-yl)ethyl)amino)pyrido[2,3-d]pyrimidin-5(8H)-one], the inhibition at 0.1 µM in test [1] is 44%; on DNA-PK(h), 32%.

`CC(C)Sc1cccc2c(Cl)c([C@H](C)Nc3ncnc4[nH]ccc(=O)c34)n(-c3ccccc3)c(=O)c12` [Example 415, (S)-4-((1-(4-chloro-8-(isopropylthio)-1-oxo-2-phenyl-1,2-dihydroisoquinolin-3-yl)ethyl)amino)pyrido[2,3-d]pyrimidin-5(8H)-one]: the inhibition at 0.1 µM in test [1] came out at 0%; on DNA-PK(h), 23%.

Take `CC(C)S(=O)(=O)c1cccc2c(Cl)c([C@H](C)Nc3ncnc4[nH]ccc(=O)c34)n(-c3ccccc3)c(=O)c12` [Example 416, (S)-4-((1-(4-chloro-8-(isopropylsulfonyl)-1-oxo-2-phenyl-1,2-dihydroisoquinolin-3-yl)ethyl)amino)pyrido[2,3-d]pyrimidin-5(8H)-one]: the inhibition at 0.1 µM in test [1] stood at 13%; at DNA-PK(h) it was 52%.

As for `C[C@H](Nc1ncnc2[nH]ccc(=O)c12)c1c(Cl)c2cccc(Sc3nccs3)c2c(=O)n1-c1ccccc1` [Example 417, (S)-4-((1-(4-chloro-1-oxo-2-phenyl-8-(thiazol-2-ylthio)-1,2-dihydroisoquinolin-3-yl)ethyl)amino)pyrido[2,3-d]pyrimidin-5(8H)-one], the inhibition at 0.1 µM in test [1] was found to be 26%; on DNA-PK(h), 48%.

Regarding `C[C@H](Nc1ncnc2[nH]ccc(=O)c12)c1c(Cl)c2cccc(SC3COC3)c2c(=O)n1-c1ccccc1` [Example 418, (S)-4-((1-(4-chloro-8-(oxetan-3-ylthio)-1-oxo-2-phenyl-1,2-dihydroisoquinolin-3-yl)ethyl)amino)pyrido[2,3-d]pyrimidin-5(8H)-one], the figures for the inhibition at 0.1 µM (in test [1]; on DNA-PK(h)) were 1% and 29%, respectively.

In the case of `C[C@H](Nc1ncnc2[nH]ccc(=O)c12)c1c(Cl)c2cccc([S+]([O-])c3ncccn3)c2c(=O)n1-c1ccccc1` (stereo partly drawn) [Example 419, 4-(((1S)-1-(4-chloro-1-oxo-2-phenyl-8-(pyrimidin-2-ylsulfinyl)-1,2-dihydroisoquinolin-3-yl)ethyl)amino)pyrido[2,3-d]pyrimidin-5(8H)-one], the inhibition at 0.1 µM was found to be 7% in test [1] and 47% at DNA-PK(h).

`C[C@H](Nc1ncnc2[nH]ccc(=O)c12)c1c(Cl)c2cccc(S(=O)(=O)c3ncccn3)c2c(=O)n1-c1ccccc1` [Example 420, (S)-4-((1-(4-chloro-1-oxo-2-phenyl-8-(pyrimidin-2-ylsulfonyl)-1,2-dihydroisoquinolin-3-yl)ethyl)amino)pyrido[2,3-d]pyrimidin-5(8H)-one]: the inhibition at 0.1 µM in test [1] was found to be 37%; at DNA-PK(h) it was 36%.

With `C[C@H](Nc1ncnc2[nH]ccc(=O)c12)c1c(Cl)c2cccc([S@](=N)(=O)c3ncccn3)c2c(=O)n1-c1ccccc1` [Example 421, 4-(((S)-1-(4-chloro-1-oxo-2-phenyl-8-((S)-pyrimidine-2-sulfonimidoyl)-1,2-dihydroisoquinolin-3-yl)ethyl)amino)pyrido[2,3-d]pyrimidin-5(8H)-one], the results for the inhibition at 0.1 µM (in test [1]; on DNA-PK(h)) were 9% and 7%, respectively.

In the case of `C[C@H](Nc1ncnc2[nH]ccc(=O)c12)c1c(Cl)c2cccc([S@@](=N)(=O)c3ncccn3)c2c(=O)n1-c1ccccc1` [Example 422, 4-(((S)-1-(4-chloro-1-oxo-2-phenyl-8-((R)-pyrimidine-2-sulfonimidoyl)-1,2-dihydroisoquinolin-3-yl)ethyl)amino)pyrido[2,3-d]pyrimidin-5(8H)-one], the figures for the inhibition at 0.1 µM (in test [1]; at DNA-PK(h)) were 9% and 18%, respectively.

As for `C[C@H](Nc1ncnc2[nH]ccc(=O)c12)c1c(Cl)c2cccc(Sc3ncccn3)c2c(=O)n1-c1ccccc1` [Example 423, (S)-4-((1-(4-chloro-1-oxo-2-phenyl-8-(pyrimidin-2-ylthio)-1,2-dihydroisoquinolin-3-yl)ethyl)amino)pyrido[2,3-d]pyrimidin-5(8H)-one], the results for the inhibition at 0.1 µM (in test [1]; on DNA-PK(h)) were 20% and 22%, respectively.

Take `C[C@H](Nc1ncnc2[nH]ccc(=O)c12)c1c(Cl)c2cccc(-c3cnc(OC(C)(C)C)nc3)c2c(=O)n1-c1ccccc1` [Example 424, (S)-4-((1-(8-(2-(tert-butoxy)pyrimidin-5-yl)-4-chloro-1-oxo-2-phenyl-1,2-dihydroisoquinolin-3-yl)ethyl)amino)pyrido[2,3-d]pyrimidin-5(8H)-one]: the values for the inhibition at 0.1 µM (in test [1]; at DNA-PK(h)) were 38% and 56%, respectively.

`C[C@H](Nc1ncnc2[nH]ccc(=O)c12)c1c(Cl)c2cccc(S(C)(=N)=O)c2c(=O)n1-c1ccccc1` (stereo partly drawn) [Example 425, 4-(((1S)-1-(4-chloro-8-(S-methylsulfonimidoyl)-1-oxo-2-phenyl-1,2-dihydroisoquinolin-3-yl)ethyl)amino)pyrido[2,3-d]pyrimidin-5(8H)-one]: the inhibition at 0.1 µM in test [1] turned out to be 86%; at DNA-PK(h), 16%.

Regarding `C[C@H](Nc1ncnc2[nH]ccc(=O)c12)c1c(Cl)c2cccc(SC(C)(C)C)c2c(=O)n1-c1ccccc1` [Example 426, (S)-4-((1-(8-(tert-butylthio)-4-chloro-1-oxo-2-phenyl-1,2-dihydroisoquinolin-3-yl)ethyl)amino)pyrido[2,3-d]pyrimidin-5(8H)-one], the inhibition at 0.1 µM in test [1] came out at 12%; at DNA-PK(h), 8%.

Turning to `C[C@H](Nc1ncnc2[nH]ccc(=O)c12)c1c(Cl)c2cccc(S)c2c(=O)n1-c1ccccc1` [Example 427, (S)-4-((1-(4-chloro-8-mercapto-1-oxo-2-phenyl-1,2-dihydroisoquinolin-3-yl)ethyl)amino)pyrido[2,3-d]pyrimidin-5(8H)-one], the results for the inhibition at 0.1 µM (in test [1]; on DNA-PK(h)) were 38% and 7%, respectively.
